Read-outs that look alike come from different tables or passages of the source. Marks after values point to notes of the source that are not given here.
Key:
[1] = target: T1, human MAO-B (Homo sapiens, UniProt P27338); settings: ratio of IC50 without/with 30 min preincubation; ref Malcomson et al. [40]; cited from earlier work
T1 construct: purchased Sigma-Aldrich (Dorset, UK); host or cells: insect cells (membranes)
T1 sequence (P27338 1-520): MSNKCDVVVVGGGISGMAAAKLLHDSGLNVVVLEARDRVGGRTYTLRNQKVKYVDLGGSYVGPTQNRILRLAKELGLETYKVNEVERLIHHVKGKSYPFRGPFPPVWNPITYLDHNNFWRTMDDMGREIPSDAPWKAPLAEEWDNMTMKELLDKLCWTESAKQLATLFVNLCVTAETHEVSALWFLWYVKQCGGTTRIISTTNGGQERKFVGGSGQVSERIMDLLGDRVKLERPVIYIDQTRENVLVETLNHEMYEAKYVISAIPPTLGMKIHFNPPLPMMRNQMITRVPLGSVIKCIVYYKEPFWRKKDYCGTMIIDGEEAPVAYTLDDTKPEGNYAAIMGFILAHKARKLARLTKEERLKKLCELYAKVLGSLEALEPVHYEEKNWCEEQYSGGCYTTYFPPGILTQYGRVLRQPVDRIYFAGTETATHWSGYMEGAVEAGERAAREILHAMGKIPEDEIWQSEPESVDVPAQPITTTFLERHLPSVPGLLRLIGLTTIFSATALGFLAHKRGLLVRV

[2] = parameters: method as in PMID 16848670; settings: depression; cited from earlier work
[3] = target: T2, MAO-A (Homo sapiens, UniProt P21397); parameters: purchased Sigma-Aldrich (Dorset, UK); host or cells: insect cells (membranes); settings: ratio of IC50 without/with 30 min preincubation; ref Malcomson et al. [40]; cited from earlier work
T2 sequence (P21397 1-527): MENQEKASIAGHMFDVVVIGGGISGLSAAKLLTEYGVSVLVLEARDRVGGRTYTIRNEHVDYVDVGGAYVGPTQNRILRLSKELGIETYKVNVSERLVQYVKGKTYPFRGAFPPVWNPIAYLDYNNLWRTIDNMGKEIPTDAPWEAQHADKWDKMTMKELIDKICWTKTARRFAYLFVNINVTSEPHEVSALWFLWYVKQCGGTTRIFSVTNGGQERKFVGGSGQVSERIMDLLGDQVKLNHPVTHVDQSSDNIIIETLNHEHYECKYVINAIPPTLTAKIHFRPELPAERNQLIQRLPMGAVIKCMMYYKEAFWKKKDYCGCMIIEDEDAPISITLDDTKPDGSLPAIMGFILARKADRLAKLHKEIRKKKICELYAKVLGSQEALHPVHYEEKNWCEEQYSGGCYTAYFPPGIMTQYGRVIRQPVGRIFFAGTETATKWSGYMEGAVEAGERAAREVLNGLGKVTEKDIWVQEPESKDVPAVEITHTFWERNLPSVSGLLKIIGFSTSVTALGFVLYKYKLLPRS

[4] = target: T1, human MAO-B; format: biochemical
Procedure: (§1) The IC50 determined after a fixed incubation time has become a routine way to compare inhibition by new inactivators, although both binding and the rate of inactivator oxidation influence the measurement.
(§2) The direct spectrophotometric assay using purified MAO-A (30–50 nM) was added last to a 1 mL final volume of 50 mM potassium phosphate pH 7.5 containing inhibitor (0–100 μM) and 0.3 mM kynuramine (equivalent to 2× KM). The increase in absorbance was followed at 314 nm in a Shimadzu UV-2101 spectrophotometer. The coupled assay in black 96-well plates (Eppendorf UK Ltd., Stevenage, UK) used tyramine, Ampliflu™ Red (AR), horseradish peroxidase (HRP) and membrane-bound human MAO-A and MAO-B purchased from Sigma-Aldrich (Dorset, UK). Final concentrations were 50 μM AR, 1 U/mL HRP, and 1 nM enzyme. The substrate was tyramine either at 2× KM (0.8 mM for MAO-A or 0.32 mM for MAO-B) for reversible binding or at 1 mM to assess remaining active MAO after incubation with the inactivators.

[5] = target: T3, purified human MAO-A (Homo sapiens, UniProt P21397); assay: Anaerobic spectral kinetics of flavin reduction and adduct formation (stopped-flow / timed spectra); format: biochemical; settings: for rate of adduct formation (absorbance increase at 410 nm) / rate of anaerobic reduction of FAD (absorbance decrease at 495 nm): purified MAO-A
T3 construct: made in house; host or cells: Saccharomyces cerevisiae
T3 sequence (P21397 1-527): T2 sequence (P21397 1-527)
Procedure: Purified human MAO-A was dialyzed against 50 mM HEPES pH 7.5 for 1 h and concentrated to at least 40 μM before loading into the rapid-mixing device syringes. MAO-A (40 μM) was mixed with an equal volume of 50 mM HEPES pH 7.5 containing excess inactivating compound in the stopped-flow spectrophotometer (Applied Photophysics SX20) at 30 °C. For anaerobic experiments, the system was flushed with 10 mM dithionite before rinsing well with buffer containing 30 mM glucose, 1 U/mL glucose oxidase, and 24 U/mL catalase. Both the MAO-A and the compound to be added were flushed with argon before the addition of 30 mM glucose, 1 U/mL glucose oxidase, and 24 U/mL catalase to ensure anaerobiosis during the experiment. Absorbance changes were measured in triplicate at three wavelengths (410, 456, and 495 nm). The absorbance acquisition rate was set at 1000 Hz for the interval 0–0.5 s and 4 Hz for the interval 0.5–1000 s. The absorbance changes were analyzed using single or double exponential fits in the built-in software as appropriate.
Figure 7 Time courses for absorbance changes in MAO-A incubated anaerobically with propargylamine inactivators.

[6] = target: T2, MAO-A; assay: IC50 after 30 min preincubation, coupled assay with saturating substrate; format: biochemical; parameters: purchased Sigma-Aldrich (Dorset, UK); host or cells: insect cells (membranes); settings: ratio of IC50 without/with 30 min preincubation
Procedure: as §1, §2

[7] = target: T2, MAO-A; settings: read-out: MAO-A Ki Direct; ref Esteban et al. [18]; cited from earlier work
[8] = target: T1, human MAO-B; assay: Time-dependent inactivation, Kitz-Wilson analysis; format: biochemical; settings: inactivation constant
Procedure: (§3) Rates (as relative fluorescence units per second, rfu/s) were analyzed as the log of the fractional activity remaining compared to control against time to obtain kobs.

[9] = target: T2, MAO-A; assay: Time-dependent inactivation, Kitz-Wilson analysis; format: biochemical; parameters: purchased Sigma-Aldrich (Dorset, UK); host or cells: insect cells (membranes)
Procedure: as §3

[10] = target: T2, MAO-A; settings: read-out: MAO-A IC50 AR Assay; without preincubation, tyramine 2× KM (0.8 mM); mean ± SD of 2–4 experiments
Procedure: (§4) The binding of these mechanism-based inhibitors can be assessed by measuring the inhibition without preincubation, adding the enzyme last to the assay mixture with both substrate and inhibitor. […] The IC50 is not an absolute parameter, but rather is a comparative measure that depends on the type of inhibition and the substrate concentration.
as §2
(§5) Ki values were calculated using the global Michaelis–Menten analysis in PRISM from initial rate data for 6 substrate concentrations (tyramine) at 5 inhibitor concentrations.

[11] = target: T1, human MAO-B; format: biochemical; settings: without preincubation, tyramine 2× KM (0.32 mM); mean ± SD of 2–4 experiments; read-out: MAO-B IC50 AR Assay
Procedure: as §4, §2, §5

[12] = test system: MAO; settings: cited from earlier work
[13] = target: T1, human MAO-B; settings: cited from earlier work
[14] = target: T2, MAO-A; parameters: purchased Sigma-Aldrich (Dorset, UK); host or cells: insect cells (membranes); method as in PMID 27977122; settings: cited from earlier work
[15] = target: T2, MAO-A; assay: Partition ratio by long-term incubation; format: biochemical; parameters: made in house; host or cells: Saccharomyces cerevisiae; settings: incubation at 30 °C up to 10 days
[16] = target: T2, MAO-A; assay: Activity remaining or recovered after anaerobic incubation with inactivator; format: biochemical; parameters: made in house; host or cells: Saccharomyces cerevisiae
Source text: MAO-A was made anaerobic by cycling with vacuum and argon. […] After the admission of oxygen to the cuvette, the 420 nm absorbance increased rapidly, accompanied by loss of activity.
In order to find a cause for the 600 nm absorbance, we considered whether oxidation could occur at either carbon adjacent to the amine nitrogen in MAO-A. (MAO-B is inactivated by F2MPA [19], so presumably, the normal allenyl imine product is formed by oxidation at the carbon between the amine and the propargyl group, CαP.) The alternative furfuryl imine product that would result from oxidation at the carbon on the other side of the amine nitrogen (between the amine and the furan ring, CαF) is shown in Scheme 2. Chemical analysis was attempted to detect the putative products of oxidation and molecular modeling to explore the interactions of F2MPA with MAO-A and MAO-B.

[17] = Figure S4, anaerobic stopped-flow, 30 C

N[C@H]1C[C@@H]1c1ccccc1 (racemic) [Tranylcypromine]
MAO-B Enhancement [1]: 54.7 ^a
patient response rates [2]: over 50%
MAO-A Enhancement [3]: 100 ^a

C#CCN(C)Cc1ccccc1 [Pargyline]
MAO-B Enhancement ([4]; ratio of IC50 without/with 30 min preincubation): 292
k, 410 nm (adduct) [5, 17]: 0.0043 s⁻¹
k, 485 nm (reduction) [5, 17]: 0.0047 s⁻¹
rate of adduct formation (absorbance increase at 410 nm) ([5]; anaerobic): 0.26 ± 0.03 min⁻¹
rate of anaerobic reduction of FAD (absorbance decrease at 495 nm) ([5]; anaerobic): 0.28 ± 0.02 min⁻¹
MAO-A Enhancement [6]: 48

C#CCN(C)Cc1cc2cc(OCCCC3CCN(Cc4ccccc4)CC3)ccc2n1C [ASS234, N-[[5-[3-(1-benzylpiperidin-4-yl)propoxy]-1-methylindol-2-yl]methyl]-N-methylprop-2-yn-1-amine]
Ki [7]: 53 ± 14 nM
IC50 ([4]; read-out: MAO-B IC50 after 30 min preincubation, human MAO in insect cell membranes, saturating substrate): 120 ± 20 nM
Ki [8]: 1740 nM
Ki [9]: 45 nM
rate of anaerobic reduction of FAD (absorbance decrease at 495 nm) ([5]; anaerobic): 3.36 min⁻¹
IC50 [10]: 33 ± 3 nM
IC50 [11]: 3200 ± 410 nM
MAO-A Enhancement [6]: 122

NNCCc1ccccc1 [Phenelzine]
patient response rates [2]: over 50%

N[C@H]1C[C@@H]1c1ccccc1 [1S,2R-trans-2-phenylcyclopropylamine]
times more potent in vitro than the other enantiomer [12]: 60 times

C#CCN(C)[C@H](C)Cc1ccccc1 [Selegiline, (2R)-N-methyl-1-phenyl-N-prop-2-ynylpropan-2-amine]
rate of adduct formation (absorbance increase at 410 nm) ([5]; anaerobic): 0.016 ± 0.003 min⁻¹
rate of anaerobic reduction of FAD (absorbance decrease at 495 nm) ([5]; anaerobic): 0.019 ± 0.002 min⁻¹
MAO-A Enhancement [6]: 357

C#CCN(C)Cc1ccco1 [F2MPA, N-(furan-2-ylmethyl)-N-methylprop-2-yn-1-amine]
MAO-B kinact [13]: 0.61 min⁻¹
MAO-B kinact/KI [13]: 0.0045 min^−1μM^−1
Ki ([13]; inactivation constant): 135000 nM
MAO-A kinact [14]: 0.087 min⁻¹
MAO-A kinact/KI [14]: 0.0005 min^−1μM^−1
Ki ([14]; inactivation constant): 187000 nM
time for completion of biphasic decrease in absorbance at 495 nm ([5]; F2MPA 2 mM, MAO-A […] μM, anaerobic): more than 21 h
rate of anaerobic reduction of FAD (absorbance decrease at 495 nm) ([5]; anaerobic): 0.0034 ± 0.0009 min⁻¹
partition ratio [15]: > 1000
activity retained ([16]; MAO-A incubated anaerobically […] with 0.5 mM): 7%
activity restored by overnight aerobic dialysis ([16]; after […] anaerobic incubation with 0.5 mM): 88%
